By Kd is commonly meant a measure of binding affinity in units of concentration. In general, IC50 refers to the concentration that inhibits the measured activity by half. Usually inhibition stands for the change of the read-out against control, counted positive when it falls.

Read-outs that look alike come from different tables or passages of the source.

In assay [1] the target is human RORγt ligand binding domain (RORγt LBD) (Homo sapiens (Human), UniProt P51449). Nature of the assay: RORγt ThermoFluor® assay (thermal shift binding). The settings on record: read-out: ThermoFluor® Assay, Kd. An outline of the steps:
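Binding was inferred from thermal stabilisation (ΔTm) of the E. coli-expressed RORγt LBD (0.065 mg/mL), monitored by 1,8-ANS (60 μM) emission at 500 nm during a 1 °C/min ramp. Buffer was Hepes 100 mM pH 7.0 with NaCl, GSH and Tween-20.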

The target in another assay is full-length human RORγt (Homo sapiens (Human), UniProt P51449). Put plainly: RORγt (full-length human) reporter assay, Conditions B or C. The settings on record: for RORγt (FL) Reporter Assay B or C, % inhibition (value marked *): marked *: footnote not given; for inhibition at 3 µM: at 3 μM compound concentration. The class given is cell-based. An outline of the steps:
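Readout is dual luciferase: firefly (GAL4-driven) normalized to DMSO-only and saturating-reference controls, then to CMV-Renilla. Full-length human RORγt fused to GAL4-DBD was transiently expressed in HEK293T; compound exposure ran overnight (16-20 h) starting 4-6 h after transfection, final FBS 1.3%, DMSO 0.1%.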
Background: A reporter such as luciferase makes a cellular process visible.

Setting [2] is: Conditions B or C, read-out: RORγt (FL) Reporter Assay B or C, IC50.
[3] abbreviates: read-out: RORγt (FL) Reporter Assay B or C, % inhibition.
The mark [4] stands for this setting: read-out: RORγt (FL) Reporter Assay B or C, IC50.
Where [5] appears, read: RORγt (FL) Reporter Assay B or C, IC50.

Chain of human RORγt ligand binding domain (RORγt LBD) (P51449 other isoform, or with tags, fused parts or gaps): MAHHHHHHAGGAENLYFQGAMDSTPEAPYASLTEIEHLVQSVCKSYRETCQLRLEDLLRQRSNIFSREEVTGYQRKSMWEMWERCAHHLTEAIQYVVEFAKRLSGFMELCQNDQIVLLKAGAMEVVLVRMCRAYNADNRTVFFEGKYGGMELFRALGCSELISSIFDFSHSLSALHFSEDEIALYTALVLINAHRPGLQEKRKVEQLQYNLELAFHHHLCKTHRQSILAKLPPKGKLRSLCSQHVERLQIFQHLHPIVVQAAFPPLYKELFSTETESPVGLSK
Chain of full-length human RORγt (P51449 other isoform, or with tags, fused parts or gaps): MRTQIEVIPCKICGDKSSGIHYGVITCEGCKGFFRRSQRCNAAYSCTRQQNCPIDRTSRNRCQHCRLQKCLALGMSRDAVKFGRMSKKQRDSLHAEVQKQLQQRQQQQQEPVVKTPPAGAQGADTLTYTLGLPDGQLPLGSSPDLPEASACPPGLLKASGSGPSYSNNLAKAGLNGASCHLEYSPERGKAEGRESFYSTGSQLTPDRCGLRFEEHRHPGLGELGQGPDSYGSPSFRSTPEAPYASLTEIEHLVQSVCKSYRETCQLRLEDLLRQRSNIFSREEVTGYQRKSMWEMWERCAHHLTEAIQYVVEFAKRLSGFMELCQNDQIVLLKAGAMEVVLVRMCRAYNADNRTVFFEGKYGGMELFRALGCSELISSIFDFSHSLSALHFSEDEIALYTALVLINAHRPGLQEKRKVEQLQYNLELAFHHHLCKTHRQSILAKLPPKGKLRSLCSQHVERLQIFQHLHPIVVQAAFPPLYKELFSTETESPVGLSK

With `CC[C@H](Nc1cc(C(F)F)c(-c2sc(C(=O)N[C@H](C)C(C)(C)O)nc2C(=O)N2CCCC[C@@H]2C)cn1)C(F)(F)F` [Example 241, 5-[4-(Difluoromethyl)-6-[[(1S)-1-(trifluoromethyl)propyl]amino]-3-pyridyl]-N-[(1R)-2-hydroxy-1,2-dimethyl-propyl]-4-[(2S)-2-methylpiperidine-1-carbonyl]thiazole-2-carboxamide], the dissociation constant (Kd) in assay [1] was determined as 0.59 nM. Further, the “RORγt (FL) Reporter Assay B or C, % inhibition (value marked *)” value (“RORγt … % inhibition (value marked *)” below) on full-length human RORγt (Conditions B or C) is 103* %. In addition, the IC50 on full-length human RORγt (setting [2]) came out at 24 nM.

For `C[C@H]1CC(F)(F)CN1C(=O)c1nc(C(=O)NCC(C)(C)O)sc1-c1cnc(NC2CCCC2)cc1C(F)F` [Example 44, (S)-5-(6-(Cyclopentylamino)-4-(difluoromethyl)pyridin-3-yl)-4-(4,4-difluoro-2-methylpyrrolidine-1-carbonyl)-N-(2-hydroxy-2-methylpropyl)thiazole-2-carboxamide], in assay [1], the Kd stood at 2.5 nM. The 50% inhibitory concentration (IC50) on full-length human RORγt (setting [2]) is 20 nM. At full-length human RORγt (read-out: RORγt (FL) Reporter Assay B or C, % inhibition @ 6 μM, Conditions B or C, @ 6 μM), the inhibition at 6 µM worked out at 111%.

For the compound `C[C@H]1CCCN1C(=O)c1nc(C(=O)N[C@H]2CC[C@H](O)C2)sc1-c1cnc(NC(C)(C)C)cc1C(F)(F)F` [Example 361, 5-[6-(tert-Butylamino)-4-(trifluoromethyl)-3-pyridyl]-N-[(1S,3S)-3-hydroxycyclopentyl]-4-[(2S)-2-methylpyrrolidine-1-carbonyl]thiazole-2-carboxamide], the dissociation constant Kd in assay [1] worked out at 0.37 nM. Moreover, the inhibition at 3 µM at full-length human RORγt (setting [3]) is 105%. The concentration for half-maximal inhibition (IC50) at full-length human RORγt (setting [4]) was determined as 25 nM.

As to `C[C@H]1CCCN1C(=O)c1nc(C(=O)N(C)CC(C)(C)O)sc1-c1cnc(NC(C)(C)C)cc1C(F)(F)F` [Example 340, 5-[6-(tert-Butylamino)-4-(trifluoromethyl)-3-pyridyl]-N-(2-hydroxy-2-methyl-propyl)-N-methyl-4-[(2S)-2-methylpyrrolidine-1-carbonyl]thiazole-2-carboxamide], in assay [1], the Kd came out at 5.3 nM. Also, at full-length human RORγt (setting [3]), the inhibition at 3 µM came out at 111%. For the same compound, the IC50 on full-length human RORγt (setting [4]) was 11 nM.

Turning to `C[C@H](CO)NC(=O)c1nc(C(=O)N2C3CCC2CC3)c(-c2cnc(N[C@@H](C)C(F)(F)F)cc2C(F)F)s1` [Example 226, 4-((1s,4s)-7-Azabicyclo[2.2.1]heptane-7-carbonyl)-5-(4-(difluoromethyl)-6-(((1S)-2,2,2-trifluoro-1-methyl-ethyl)amino)-3-pyridyl)-N-((1R)-2-hydroxy-1-methyl-ethyl)thiazole-2-carboxamide], in assay [1], the dissociation constant (Kd) came to 14 nM. For the same compound, at full-length human RORγt (Conditions B or C), the “RORγt … % inhibition (value marked *)” value was 94* %. In addition, on full-length human RORγt (setting [2]), the IC50 amounted to 140 nM.

Regarding `CC(C)(C)Nc1cc(C(F)F)c(-c2sc(C(=O)N[C@@H]3CC[C@@H](O)C3)nc2C(=O)N2C3CCC2CC3)cn1` [Example 430, 4-((1s,4s)-7-Azabicyclo[2.2.1]heptane-7-carbonyl)-5-[6-(tert-butylamino)-4-(difluoromethyl)-3-pyridyl]-N-[(1R,3R)-3-hydroxycyclopentyl]thiazole-2-carboxamide], the Kd in assay [1] was found to be 0.6 nM. The 50% inhibitory concentration (IC50) against full-length human RORγt (setting [5]) was 13 nM. For the same compound, the inhibition at 1 µM at full-length human RORγt (at 1 μM compound concentration, read-out: RORγt (FL) Reporter Assay B or C, % inhibition) amounted to 130%.

Turning to `O=C(N[C@@H]1CC[C@H]1O)c1nc(C(=O)N2C3CCC2CC3)c(-c2cnc(N[C@@H](C3CC3)C(F)(F)F)cc2C(F)F)s1` (relative stereo) [Example 443, 4-((1s,4s)-7-Azabicyclo[2.2.1]heptane-7-carbonyl)-5-(6-(((S)-1-cyclopropyl-2,2,2-trifluoroethyl)amino)-4-(difluoromethyl)pyridin-3-yl)-N-((1R*,2R*)-2-hydroxycyclobutyl)thiazole-2-carboxamide], the Kd in assay [1] came to 2.2 nM. In addition, at full-length human RORγt (setting [3]), the inhibition at 3 µM stood at 107%. Moreover, the IC50 on full-length human RORγt (setting [4]) was 16 nM.

In the case of `C[C@H]1CCCN1C(=O)c1nc(C(=O)NCC2(O)CCC2)sc1-c1cnc(NC2CCCC2)cc1C(F)F` [Example 71, (S)-5-(6-(Cyclopentylamino)-4-(difluoromethyl)pyridin-3-yl)-N-((1-hydroxycyclobutyl)methyl)-4-(2-methylpyrrolidine-1-carbonyl)thiazole-2-carboxamide], the Kd in assay [1] was 3.7 nM. At full-length human RORγt (Conditions B or C), the “RORγt … % inhibition (value marked *)” value was 111* %. Further, the IC50 at full-length human RORγt (setting [2]) was 13 nM.

Regarding `C[C@H](NC(=O)c1nc(C(=O)N2C3CCC2CC3)c(-c2cnc(N[C@@H](C3CC3)C(F)(F)F)cc2C(F)F)s1)C(C)(C)O` [Example 317, 4-((1s,4s)-7-Azabicyclo[2.2.1]heptane-7-carbonyl)-5-(6-(((S)-1-cyclopropyl-2,2,2-trifluoroethyl)amino)-4-(difluoromethyl)pyridin-3-yl)-N—((S)-3-hydroxy-3-methylbutan-2-yl)thiazole-2-carboxamide], the Kd in assay [1] stood at 2.4 nM. This compound also returned an IC50 against full-length human RORγt (setting [5]) of 14 nM. The inhibition at 3 µM at full-length human RORγt (setting [3]) was determined as 106%.

With `CC[C@@H](CO)NC(=O)c1nc(C(=O)N2CCC[C@@H]2C)c(-c2cnc(N[C@@H](C)C(F)(F)F)cc2C(F)F)s1` [Example 407, 5-[4-(Difluoromethyl)-6-[[(1S)-2,2,2-trifluoro-1-methyl-ethyl]amino]-3-pyridyl]-N-[(1S)-1-(hydroxymethyl)propyl]-4-[(2S)-2-methylpyrrolidine-1-carbonyl]thiazole-2-carboxamide], the equilibrium dissociation constant (Kd) in assay [1] turned out to be 15 nM. On full-length human RORγt (setting [3]), the inhibition at 3 µM worked out at 100%. Also, the concentration for half-maximal inhibition (IC50) at full-length human RORγt (setting [4]) was determined as 120 nM.

On to `C[C@H](Nc1cc(C(F)F)c(-c2sc(C(=O)N[C@H]3C[C@H](O)C3)nc2C(=O)N2CCC[C@@H]2C)cn1)C(F)(F)F` [Example 188], for which, in assay [1], the Kd came out at 47 nM. Besides, the “RORγt … % inhibition (value marked *)” value on full-length human RORγt (Conditions B or C) is recorded as 85* %. The IC50 at full-length human RORγt (setting [2]) stood at 540 nM.

`C[C@H]1CC(F)(F)CN1C(=O)c1nc(C(=O)N[C@@H]2COC[C@@H]2O)sc1-c1cnc(NC2(C)CCC2)cc1C(F)(F)F` (relative stereo) [Example 183, 4-((S)-4,4-Difluoro-2-methylpyrrolidine-1-carbonyl)-N-((3R*,4R*)-4-hydroxytetrahydrofuran-3-yl)-5-(6-((1-methylcyclobutyl)amino)-4-(trifluoromethyl)pyridine-3-yl)thiazole-2-carboxamide]: the dissociation constant Kd in assay [1] amounted to 0.22 nM. The “RORγt … % inhibition (value marked *)” value at full-length human RORγt (Conditions B or C) is given as 76* %. At full-length human RORγt (setting [2]), the 50% inhibitory concentration (IC50) stood at 34 nM.

As for `CCC(C)(C)Nc1cc(C(F)F)c(-c2sc(C(=O)NCC(C)(C)O)nc2C(=O)N2CCC[C@@H]2C)cn1` [Example 96, (S)-5-(4-(Difluoromethyl)-6-(tert-pentylamino)pyridin-3-yl)-N-(2-hydroxy-2-methylpropyl)-4-(2-methylpyrrolidine-1-carbonyl)thiazole-2-carboxamide], the dissociation constant (Kd) in assay [1] stood at 1.2 nM. In addition, at full-length human RORγt (Conditions B or C), the “RORγt … % inhibition (value marked *)” value is listed as 119* %. In addition, on full-length human RORγt (setting [2]), the IC50 came out at 37 nM.

Turning to `CCC(C)(C)Nc1cc(C(F)F)c(-c2sc(C(=O)NCC(C)(C)O)nc2C(=O)N2C3CCC2CC3)cn1` [Example 93, 4-((1s,4s)-7-Azabicyclo[2.2.1]heptane-7-carbonyl)-5-(4-(difluoromethyl)-6-(tert-pentylamino)pyridin-3-yl)-N-(2-hydroxy-2-methylpropyl)thiazole-2-carboxamide], the Kd in assay [1] came out at 1.1 nM. Moreover, the “RORγt … % inhibition (value marked *)” value on full-length human RORγt (Conditions B or C) was 121* %. The IC50 at full-length human RORγt (setting [2]) stood at 10 nM.

On to `C[C@H]1CCCN1C(=O)c1nc(C(=O)N[C@H]2CC[C@@H]2O)sc1-c1cnc(NC(C)(C)C)cc1C(F)F` (relative stereo) [Example 404, 5-(6-(tert-Butylamino)-4-(difluoromethyl)pyridin-3-yl)-N-((1S*,2S*)-2-hydroxycyclobutyl)-4-((S)-2-methylpyrrolidine-1-carbonyl)thiazole-2-carboxamide], for which, in assay [1], the dissociation constant Kd is 3.8 nM. The inhibition at 0.3 µM on full-length human RORγt (at 0.3 μM compound concentration, read-out: RORγt (FL) Reporter Assay B or C, % inhibition) is 98%. The IC50 on full-length human RORγt (setting [4]) amounted to 15 nM.

Turning to `C[C@H]1CCCN1C(=O)c1nc(C(=O)N[C@H](C)C(C)(C)O)sc1-c1cnc(NC2(C)CCC2)cc1C(F)F` [Example 321, 5-(4-(Difluoromethyl)-6-((1-methylcyclobutyl)amino)pyridin-3-yl)-N—((R)-3-hydroxy-3-methylbutan-2-yl)-4-((S)-2-methylpyrrolidine-1-carbonyl)thiazole-2-carboxamide], the dissociation constant (Kd) in assay [1] amounted to 5.2 nM. In addition, the inhibition at 3 µM on full-length human RORγt (setting [3]) turned out to be 87%. On full-length human RORγt (setting [4]), the IC50 was 100 nM.

Consider `CC[C@H](Nc1cc(C(F)F)c(-c2sc(C(=O)NC3CCOCC3)nc2C(=O)N2CCC[C@@H]2C)cn1)C(F)(F)F` [Example 394, 5-[4-(Difluoromethyl)-6-[[(1S)-1-(trifluoromethyl)propyl]amino]-3-pyridyl]-4-[(2S)-2-methylpyrrolidine-1-carbonyl]-N-tetrahydropyran-4-yl-thiazole-2-carboxamide], for which, in assay [1], the Kd came to 2 nM. Further, the inhibition at 3 µM on full-length human RORγt (setting [3]) came out at 114%. Also, at full-length human RORγt (setting [4]), the IC50 was found to be 34 nM.

As for `C[C@H]1CC(F)(F)CN1C(=O)c1nc(C(=O)N[C@H](C)C(C)(C)O)sc1-c1cnc(NC2(C)CCC2)cc1C(F)(F)F` [Example 196, 4-((S)-4,4-Difluoro-2-methylpyrrolidine-1-carbonyl)-N—((R)-3-hydroxy-3-methylbutan-2-yl)-5-(6-((1-methhylcyclobutyl)amino)-4-(trifluoromethyl)pyridine-3-yl)thiazole-2-carboxamide], in assay [1], the Kd came to 0.64 nM. The “RORγt … % inhibition (value marked *)” value on full-length human RORγt (Conditions B or C) is listed as 109* %. Further, at full-length human RORγt (setting [2]), the concentration for half-maximal inhibition (IC50) is 27 nM.

Values taken from patent US10975068B2, “6-aminopyridin-3-yl thiazoles as modulators of RORγT” (Janssen Pharmaceutica NV, priority 2016, dated 2021).
